Reference: ChEMBL document CHEMBL1201862, “PubChem BioAssay data set” (2004)
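Cultured in 96-well plates, cells were exposed to test compound for 48 hours across five concentrations. Abbreviation: GI50, concentration required for 50% inhibition of growth.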 The source made the active and inactive calls. Cut-off read from the data, not from the text of the source: active = GI50 up to about 1.1 µM and inactive = higher.

Assays:
Test in all cases: inhibition of tumour cell growth, NCI panel, 48 h
786-0 = tested on: 786-0
A498 = tested on: A498
A549 = tested on: A549
ACHN = tested on: ACHN
CCRF-CEM = tested on: CCRF-CEM
COLO 205 = tested on: COLO 205
DLD-1 = tested on: DLD-1
DMS-114 = tested on: DMS-114
EKVX = tested on: EKVX
HCC 2998 = tested on: HCC 2998
HCT-116 = tested on: HCT-116
HL-60 = tested on: HL-60
HOP-62 = tested on: HOP-62
HOP-92 = tested on: HOP-92
HT-29 = tested on: HT-29
IGROV-1 = tested on: IGROV-1
K562 = tested on: K562
KM-20L2 = tested on: KM-20L2
KM12 = tested on: KM12
LOX IMVI = tested on: LOX IMVI
LXFL 529 = tested on: LXFL 529
M14 = tested on: M14
M19-MEL = tested on: M19-MEL
MOLT-4 = tested on: MOLT-4
Malme-3M = tested on: Malme-3M
NCI-H226 = tested on: NCI-H226
NCI-H23 = tested on: NCI-H23
NCI-H460 = tested on: NCI-H460
NCI-H522 = tested on: NCI-H522
OVCAR-3 = tested on: OVCAR-3
OVCAR-5 = tested on: OVCAR-5
OVCAR-8 = tested on: OVCAR-8
RPMI-8226 = tested on: RPMI-8226
RXF 393 = tested on: RXF 393
RXF 631 = tested on: RXF 631
SF-268 = tested on: SF-268
SF-295 = tested on: SF-295
SF-539 = tested on: SF-539
SK-MEL-28 = tested on: SK-MEL-28
SK-MEL-2 = tested on: SK-MEL-2
SK-MEL-5 = tested on: SK-MEL-5
SK-OV-3 = tested on: SK-OV-3
SNB-75 = tested on: SNB-75
SNB-78 = tested on: SNB-78
SW-620 = tested on: SW-620
TK-10 = tested on: TK-10
U-251 = tested on: U-251
UACC-257 = tested on: UACC-257
UACC-62 = tested on: UACC-62
UO-31 = tested on: UO-31
XF498 = tested on: XF498
DMS-273 = tested on: DMS-273
SNB-19 = tested on: SNB-19
SR = tested on: SR
CAKI-1 = tested on: CAKI-1
HCT-15 = tested on: HCT-15
HOP-18 = tested on: HOP-18
OVCAR-4 = tested on: OVCAR-4
SN12C = tested on: SN12C

In the case of `Cc1cccc(C)c1NC(=O)C(=O)C(C(=O)c1ccccc1-c1ccccc1)C1OC(=O)c2ccccc21` (centres undefined), the GI50 (786-0) is reported as 18.2 µM (inactive), the GI50 (A498) is reported as 18.7 µM (inactive) and the GI50 (A549) is reported as 25.6 µM (inactive). For the same compound, the GI50 (ACHN) was 43.9 µM (inactive), the GI50 (CCRF-CEM) was 19.4 µM (inactive) and the GI50 (COLO 205) was 19.2 µM (inactive). The GI50 (DLD-1) was 17.5 µM (inactive), the GI50 (DMS-114) was 13.7 µM (inactive) and the GI50 (EKVX) was 26.3 µM (inactive). For the same compound, the GI50 (HCC 2998) was 15.1 µM (inactive), the GI50 (HCT-116) was 14.6 µM (inactive) and the GI50 (HL-60) was 21 µM (inactive). The GI50 (HOP-62) was 16.9 µM (inactive), the GI50 (HOP-92) was 16.7 µM (inactive) and the GI50 (HT-29) was 37.1 µM (inactive). The GI50 (IGROV-1) was 25.6 µM (inactive), the GI50 (K562) was 30.4 µM (inactive) and the GI50 (KM-20L2) was 28.8 µM (inactive). The GI50 (KM12) was 20.9 µM (inactive), the GI50 (LOX IMVI) was 19 µM (inactive) and the GI50 (LXFL 529) was 13.5 µM (inactive). The GI50 (M14) was 14.7 µM (inactive), the GI50 (M19-MEL) was 15.6 µM (inactive) and the GI50 (MOLT-4) was 18.1 µM (inactive). The GI50 (Malme-3M) was 12.5 µM (inactive), the GI50 (NCI-H226) was 11.6 µM (inactive) and the GI50 (NCI-H23) was 14.3 µM (inactive). The GI50 (NCI-H460) was 27.3 µM (inactive), the GI50 (NCI-H522) was 10.9 µM (inactive) and the GI50 (OVCAR-3) was 17.1 µM (inactive). For the same compound, the GI50 (OVCAR-5) was 23.2 µM (inactive), the GI50 (OVCAR-8) was 29.6 µM (inactive) and the GI50 (RPMI-8226) was 15.8 µM (inactive). For the same compound, the GI50 (RXF 393) was 12.8 µM (inactive), the GI50 (RXF 631) was 31.8 µM (inactive) and the GI50 (SF-268) was 23.7 µM (inactive). For the same compound, the GI50 (SF-295) was 31.3 µM (inactive), the GI50 (SF-539) was 14.8 µM (inactive) and the GI50 (SK-MEL-28) was 22.9 µM (inactive). The GI50 (SK-MEL-2) was 16.2 µM (inactive), the GI50 (SK-MEL-5) was 17.8 µM (inactive) and the GI50 (SK-OV-3) was 27.6 µM (inactive). For the same compound, the GI50 (SNB-75) was 22 µM (inactive), the GI50 (SNB-78) was 24.8 µM (inactive) and the GI50 (SW-620) was 26.4 µM (inactive). For the same compound, the GI50 (TK-10) was 26.7 µM (inactive), the GI50 (U-251) was 14.2 µM (inactive) and the GI50 (UACC-257) was 22.6 µM (inactive). For the same compound, the GI50 (UACC-62) was 17.4 µM (inactive), the GI50 (UO-31) was 25.3 µM (inactive) and the GI50 (XF498) was 15.9 µM (inactive).
With `CC(=O)O[C@H]1CCC(C)=CCC[C@@]2(C)C(CC[C@@H]2[C@@H](C)/C=C/C(C)C)c2ccc(cc2C(=O)O)C1` (some centres undefined) the GI50 (A498) was 6.35 µM (inactive), the GI50 (ACHN) was 3.6 µM (inactive) and the GI50 (CCRF-CEM) was 3.13 µM (inactive). For the same compound, the GI50 (DMS-114) was 4.49 µM (inactive), the GI50 (DMS-273) was 3.84 µM (inactive) and the GI50 (EKVX) was 11 µM (inactive). The GI50 (HCT-116) was 2.94 µM (inactive), the GI50 (HL-60) was 1.73 µM (inactive) and the GI50 (HOP-62) was 2.45 µM (inactive). The GI50 (HOP-92) was 2.84 µM (inactive), the GI50 (HT-29) was 3.93 µM (inactive) and the GI50 (IGROV-1) was 2.96 µM (inactive). For the same compound, the GI50 (K562) was 3.21 µM (inactive), the GI50 (KM-20L2) was 3.67 µM (inactive) and the GI50 (KM12) was 2.21 µM (inactive). The GI50 (M14) was 5.02 µM (inactive), the GI50 (M19-MEL) was 4.18 µM (inactive) and the GI50 (MOLT-4) was 1.92 µM (inactive). The GI50 (NCI-H23) was 2.63 µM (inactive), the GI50 (NCI-H460) was 3.12 µM (inactive) and the GI50 (NCI-H522) was 2.49 µM (inactive). For the same compound, the GI50 (OVCAR-5) was 3.28 µM (inactive), the GI50 (OVCAR-8) was 4.06 µM (inactive) and the GI50 (RXF 393) was 3.11 µM (inactive). For the same compound, the GI50 (RXF 631) was 7.4 µM (inactive), the GI50 (SF-295) was 2.9 µM (inactive) and the GI50 (SK-MEL-28) was 5.05 µM (inactive). For the same compound, the GI50 (SK-OV-3) was 3.6 µM (inactive), the GI50 (SNB-19) was 3.04 µM (inactive) and the GI50 (SNB-78) was 3.33 µM (inactive). The GI50 (SR) was 2.59 µM (inactive), the GI50 (TK-10) was 3.45 µM (inactive) and the GI50 (U-251) was 2.54 µM (inactive). The GI50 (UACC-257) was 4.59 µM (inactive), the GI50 (UACC-62) was 1.95 µM (inactive) and the GI50 (UO-31) was 2.03 µM (inactive).
`COc1cc2c[n+](C)c3c4cc(OC)c(OC)cc4c(OCCCCCCCCOc4cc5c6cc(OC)c(OC)cc6c[n+](C)c5c5cc(OC)c(OC)cc45)cc3c2cc1OC` was tested, and the GI50 (786-0) was 30.6 µM (inactive), the GI50 (A498) was > 100 µM (inactive) and the GI50 (A549) was > 100 µM (inactive). For the same compound, the GI50 (ACHN) was > 100 µM (inactive), the GI50 (CAKI-1) was > 100 µM (inactive) and the GI50 (CCRF-CEM) was 24.8 µM (inactive). For the same compound, the GI50 (DLD-1) was > 100 µM (inactive), the GI50 (DMS-114) was 22.1 µM (inactive) and the GI50 (DMS-273) was 20 µM (inactive). For the same compound, the GI50 (EKVX) was > 100 µM (inactive), the GI50 (HCC 2998) was > 100 µM (inactive) and the GI50 (HCT-116) was > 100 µM (inactive). For the same compound, the GI50 (HCT-15) was greater than 100 µM, the GI50 (HL-60) was 2.23 µM (inactive) and the GI50 (HOP-18) was > 100 µM (inactive). For the same compound, the GI50 (HOP-62) was > 100 µM (inactive), the GI50 (HOP-92) was > 100 µM (inactive) and the GI50 (HT-29) was 67.9 µM (inactive). For the same compound, the GI50 (IGROV-1) was > 100 µM (inactive), the GI50 (K562) was 8.71 µM (inactive) and the GI50 (KM-20L2) was 80 µM (inactive). The GI50 (KM12) was 72.8 µM (inactive), the GI50 (LOX IMVI) was > 100 µM (inactive) and the GI50 (LXFL 529) was > 100 µM (inactive). For the same compound, the GI50 (M14) was > 100 µM (inactive), the GI50 (M19-MEL) was 53.1 µM (inactive) and the GI50 (MOLT-4) was 31.6 µM (inactive). The GI50 (Malme-3M) was > 100 µM (inactive), the GI50 (NCI-H226) was > 100 µM (inactive) and the GI50 (NCI-H23) was > 100 µM (inactive). The GI50 (NCI-H460) was > 100 µM (inactive), the GI50 (NCI-H522) was > 100 µM (inactive) and the GI50 (OVCAR-3) was > 100 µM (inactive). For the same compound, the GI50 (OVCAR-4) was > 100 µM (inactive), the GI50 (OVCAR-5) was > 100 µM (inactive) and the GI50 (OVCAR-8) was > 100 µM (inactive). The GI50 (RPMI-8226) was 22.3 µM (inactive), the GI50 (RXF 393) was > 100 µM (inactive) and the GI50 (SF-268) was > 100 µM (inactive). For the same compound, the GI50 (SF-295) was > 100 µM (inactive), the GI50 (SF-539) was 51.4 µM (inactive) and the GI50 (SK-MEL-28) was > 100 µM (inactive). For the same compound, the GI50 (SK-MEL-2) was > 100 µM (inactive), the GI50 (SK-MEL-5) was 47.8 µM (inactive) and the GI50 (SK-OV-3) was > 100 µM (inactive). The GI50 (SN12C) was > 100 µM (inactive), the GI50 (SNB-19) was 17.4 µM (inactive) and the GI50 (SNB-75) was 58.6 µM (inactive). The GI50 (SNB-78) was > 100 µM (inactive), the GI50 (SR) was 4.28 µM (inactive) and the GI50 (SW-620) was > 100 µM (inactive). The GI50 (TK-10) was > 100 µM (inactive), the GI50 (U-251) was 12.9 µM (inactive) and the GI50 (UACC-257) was > 100 µM (inactive). For the same compound, the GI50 (UACC-62) was > 100 µM (inactive), the GI50 (UO-31) was > 100 µM (inactive) and the GI50 (XF498) was > 100 µM (inactive).
